Calls of active or inactive are those of the source. The rule behind the calls is not given here.
How the values were obtained:
A-375 [1] = assay: Antitumor activity against human A-375 cells xenografted in nude mouse assessed as tumor growth inhibition at 10 to 40 mg/kg, ip and measured once every two days for 14 days; format: functional, organism-based; details: dose 10-40 mg/kg, time 14.0 day
[2] = target: T1, Histone deacetylase (Homo sapiens) (UniProt Q13547+O15379+Q9UBN7+Q92769+Q9UQL6+Q8WUI4+Q9BY41+Q96DB2+P56524+Q9UKV0+Q969S8); assay: Inhibition of HDAC in human A-375 cells assessed as upregulation of alpha-tubulin acetylation at 5 to 20 uM measured after 24 hrs; format: cell-based; details: dose 5-20 µM
[3] = Toxicity in BALB/c mouse assessed as histopathological changes in liver at 50 to 100 mg/kg, iv measured after 7 days by H and E staining based assay; format: organism-based; details: in vivo, 168 h, dose 50-100 mg/kg, time 7 day
[4] = Toxicity in BALB/c mouse assessed as death of animal at 125 to 200 mg/kg, iv administered for 7 days; format: organism-based; details: in vivo, 168 h, dose 125-200 mg/kg, time 7 day
A-375 [5] = assay: Induction of cell cycle arrest in human A-375 cells assessed as accumulation at G1 phase at 2.5 uM incubated for 24 hrs by PI staining based flow cytometry analysis (reference value: 68.07 %); format: functional
[6] = Stability of the compound in Tris-HCL buffer at pH 7.4 measured for 24 hrs by RP-HPLC-UV analysis; format: physicochemical; details: pH 7.4, 24 h
A-375 [7] = assay: Antitumor activity against human A-375 cells implanted in BALB/c mouse assessed as shrinkage of tumor tissue at 40 mg/kg, ip measured once every two days for 14 days; format: functional, organism-based; details: time 14.0 day
A-375 [8] = assay: Antitumor activity against human A-375 cells xenografted in nude mouse assessed as reduction in tumor weight at 10 to 40 mg/kg, ip measured once every two days for 14 days; format: functional, organism-based; details: dose 10-40 mg/kg, time 14.0 day
A-375 [9] = assay: Induction of apoptosis in human A-375 cells assessed as apoptotic cells at 10 uM measured at 24 hrs by Annexin V FITC/PI staining based flow cytometry analysis relative to control; format: functional
MDA-MB-231 = assay: Induction of mitochondrial membrane hyperpolarization in human MDA-MB-231 cells assessed as JC-1 level at 2.5 to 10 uM incubated for 4 hrs by JC-1 staining based flow cytometry analysis relative to control; format: functional; details: dose 2.5-10 µM
A-375 [10] = assay: Effect on mitochondrial bio-energestics in human A-375 cells assessed as increase in OCR/ECRA ratio at 0.25 to 1 uM measured after 4 hrs; format: functional, cell-based; details: dose 0.25-1 µM
A-375 [11] = assay: Antiproliferative activity against human A-375 cells assessed as inhibition of cell viability incubated for 72 hrs by MTT assay; format: functional, cell-based; details: A-375, 72 h
A-375 [12] = assay: Inhibition of glycolysis in human A-375 cells assessed as reduction in extracellular acidification rate at 0.25 to 5 uM measured after 4 hrs; format: functional, cell-based; details: dose 0.25-5 µM
A-375 [13] = assay: Cytotoxicity against human A-375 cells assessed as reduction in cell vaibility measured at 48 hrs in absence of BNPP by MTT assay; format: functional, cell-based; details: A-375, 48 h
[14] = Toxicity in BALB/c mouse assessed as change in body weight at 40 mg/kg, iv measured once every two days for 7 days; format: organism-based; details: in vivo, 168 h, time 7 day
A-375 [15] = assay: Induction of apoptosis in human A-375 cells assessed as apoptotic cells at 10 uM measured after 48 hrs by Annexin V FITC/PI staining based flow cytometry analysis relative to control; format: functional
A-375 [16] = assay: Inhibition of glycolysis in human A-375 cells assessed as reduction in lactate formation at 0.25 to 5 uM incubated for 8 hrs; format: functional, cell-based; details: dose 0.25-5 µM
A-375 [17] = assay: Antitumor activity against human A-375 cells xenografted in nude mouse assessed as induction of apoptosis by measuring morphological changes at 40 mg/kg, ip measured once every two days for 14 days by TUNEL assay; format: functional, organism-based; details: time 14.0 day
A-375 [18] = assay: Antitumor activity against human A-375 cells implanted in BALB/c mouse assessed as tumor growth inhibition at 40 mg/kg, ip measured once every two days for 14 days; format: functional, organism-based; details: time 14.0 day
A-375 [19] = assay: Induction of cell cycle arrest in human A-375 cells assessed as accumulation at S phase at 5 uM incubated for 24 hrs by PI staining based flow cytometry analysis (reference value: 24.01 %); format: functional
[20] = Toxicity in BALB/c mouse assessed as change in body weight at 100 mg/kg, iv administered for 7 days and measured once per 2 days; format: organism-based; details: in vivo, 168 h, time 7 day
A-375 [21] = assay: Antitumor activity against human A-375 cells xenografted in nude mouse assessed as induction of apoptosis by measuring morphological changes at 40 mg/kg, ip measured once every two days for 14 days by H and E staining based assay; format: functional, organism-based; details: time 14.0 day
A-375 [22] = assay: Induction of cell cycle arrest in human A-375 cells assessed as accumulation at S phase at 2.5 uM incubated for 24 hrs by PI staining based flow cytometry analysis (reference value: 24.01 %); format: functional
HaCaT = assay: Induction of mitochondrial membrane hyperpolarization in human HaCaT cells assessed as JC-1 level at 2.5 to 10 uM incubated for 4 hrs by JC-1 staining based flow cytometry analysis relative to control; format: functional; details: dose 2.5-10 µM
[23] = Efflux ratio of apparent permeability from basolateral to apical side over apical to basolateral side in human Caco2 cells by LC-MS/MS analysis; format: ADME, cell-based; details: Caco-2
L02 = assay: Induction of mitochondrial membrane hyperpolarization in human L02 cells assessed as JC-1 level at 2.5 to 10 uM incubated for 4 hrs by JC-1 staining based flow cytometry analysis relative to control; format: functional; details: dose 2.5-10 µM
A-375 [24] = assay: Induction of cell cycle arrest in human A-375 cells assessed as accumulation at G2 phase at 5 uM incubated for 24 hrs by PI staining based flow cytometry analysis (reference value: 7.92 %); format: functional
A-375 [25] = assay: Induction of cell cycle arrest in human A-375 cells assessed as accumulation at S phase at 7.5 uM incubated for 24 hrs by PI staining based flow cytometry analysis (reference value: 24.01 %); format: functional
A-375 [26] = assay: Cytotoxicity against human A-375 cells assessed as reduction in cell vaibility measured at 24 hrs in presence of BNPP by MTT assay; format: functional, cell-based; details: A-375, 24 h
A-375 [27] = assay: Cytotoxicity against human A-375 cells assessed as reduction in cell vaibility measured at 24 hrs in absence of BNPP by MTT assay; format: functional, cell-based; details: A-375, 24 h
[28] = Toxicity in BALB/c mouse assessed as effect on body weight at 125 to 200 mg/kg, iv administered for 7 days and measured once per 2 days; format: organism-based; details: in vivo, 168 h, dose 125-200 mg/kg, time 7 day
A-375 [29] = assay: Induction of apoptosis in human A-375 cells assessed as apoptotic cells at 5 uM measured after 48 hrs by Annexin V FITC/PI staining based flow cytometry analysis relative to control; format: functional
[30] = Apparent permeability across apical to basolateral side in human Caco-2 cells at 2 uM measured after 2 hrs by LC-MS/MS analysis; format: ADME, cell-based
A-375 [31] = assay: Cytotoxicity against human A-375 cells assessed as reduction in cell vaibility measured at 48 hrs in presence of BNPP by MTT assay; format: functional, cell-based; details: A-375, 48 h
[32] = target: T1, Histone deacetylase (Homo sapiens); assay: Inhibition of HDAC in human A-375 cells assessed as upregulation of histone-H3 acetylation at 5 to 20 uM measured after 24 hrs; format: cell-based; details: dose 5-20 µM

## O=C(CCCCCCCCC[P+](c1ccc(C(F)(F)F)cc1)(c1ccc(C(F)(F)F)cc1)c1ccc(C(F)(F)F)cc1)NC(COC(=O)CCCc1ccccc1)(COC(=O)CCCc1ccccc1)COC(=O)CCCc1ccccc1.[Br-]
A-375 [1]
  Activity: Active
[2]
  inhibition: Active
[3]
  Activity: Non-Toxic
[4]
  Activity: Non-Toxic
A-375 [5]
  Activity: 74.71%
[6]
  Stability: Stable
A-375 [7]
  Activity: Active
A-375 [8]
  Activity: Active
A-375 [9]
  Activity: 7%
MDA-MB-231
  Activity: 3.27%
A-375 [10]
  Activity: Active
A-375 [11]
  IC50: 2.22 µM
A-375 [12]
  inhibition: Active
A-375 [13]
  IC50: 3.34 µM
[14]
  Activity: Non-Toxic
A-375 [15]
  Activity: 50%
A-375 [16]
  inhibition: Active
A-375 [17]
  Activity: Active
A-375 [18]
  Activity: Active
A-375 [19]
  Activity: 15.46%
[20]
  Activity: Non-Toxic
A-375 [21]
  Activity: Active
A-375 [22]
  Activity: 16.71%
HaCaT
  Activity: 12.67%
[23]
  efflux ratio: 0.69
L02
  Activity: 11.49%
A-375 [24]
  Activity: 8.85%
A-375 [25]
  Activity: 11.75%
A-375 [26]
  IC50: 28.4 µM
A-375 [27]
  IC50: 6.06 µM
[28]
  Activity: Non-Toxic
A-375 [29]
  Activity: 12%
[30]
  Papp A→B at 2 h, 2 µM: 24.3 ×10⁻⁶ cm/s
A-375 [31]
  IC50: 18.9 µM
[32]
  inhibition: Active
